We go through two compounds from PMC10470053, “Diverse p120RasGAP interactions with doubly phosphorylated partners EphB4, p190RhoGAP, and Dok1” (The Journal of Biological Chemistry, 2023).

For this assay, the target named is T1, RasGAP^232 (p120RasGAP N-SH2, SH3, C-SH2, residues 174–444) (Homo sapiens, UniProt P20936, C236S/C261S/C372S/C402S).
T1 construct: (residues 174–444, termed RasGAP^232); hexahistidine (TEV-cleavable) (N, cleaved yes); made in house; host or cells: E. coli Rosetta (DE3)
T1 sequence (P20936 174-444 C236S/C261S/C372S/C402S): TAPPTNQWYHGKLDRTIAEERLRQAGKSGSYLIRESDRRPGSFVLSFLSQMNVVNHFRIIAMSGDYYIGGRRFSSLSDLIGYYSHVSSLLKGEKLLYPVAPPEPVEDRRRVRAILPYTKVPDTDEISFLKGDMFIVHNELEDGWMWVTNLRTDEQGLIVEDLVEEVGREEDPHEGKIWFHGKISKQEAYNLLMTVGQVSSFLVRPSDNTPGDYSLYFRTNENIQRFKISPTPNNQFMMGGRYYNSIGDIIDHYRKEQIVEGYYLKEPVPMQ
The assay is described as follows: Isothermal titration calorimetry, WT RasGAP^232 with phosphopeptides. It counts as binding. The method, then:
We expressed and purified the region of RasGAP encompassing both SH2 domains with a construct that includes the N-SH2, SH3, and C-SH2 domains (residues 174–444, termed RasGAP^232 ([50])) (Figs. 1A and S2A). Separately, we synthesized peptides containing both phosphotyrosine residues for EphB4 and Dok1 (Fig. 1C). Our previous isothermal titration calorimetry (ITC) study assessed the affinity of RasGAP^232 for doubly phosphorylated p190RhoGAP-A peptide and found a Kd of 10 ± 6 nM for tandem engagement of both phosphotyrosines by both SH2 domains ([50]).
Synthetic peptides were purchased from GenScript and contain N-terminal acetylation and C-terminal amidation for stability. The doubly phosphorylated EphB4 peptide (UniProt ID P54760) used in ITC and SAXS experiments contains residues 586 to 602 (GTKV[pTyr]IDPFT[pTyr]EDPNEA). The singly phosphorylated EphB4 peptides pY590 and pY596 used in ITC experiments contain the residues 586 to 595 (GTKV[pTyr]IDPFT) and residues 592 to 602 (DPFT[pTyr]EDPNE), respectively. The p190RhoGAP peptide (UniProt ID Q9NRY4) used in SAXS experiments contains the residues 1083 to 1111 (SD[pTyr]AEPMDAVVKPRNEEENI[pTyr]SVPH). The Dok1 peptide (UniProt ID Q99704) used in ITC and SAXS experiments contains the residues 291 to 322 (SPPAL[pTyr]AEPLDSLRIAPCPSQDSL[pTyr]SDPLDST). Lyophilized peptides were reconstituted in water, and less soluble peptides (pYpYEphB4 and pY590) were spiked with 20 mM Tris pH 8 or 10 mM NaOH to increase solubility. Concentrations of stock peptides are as follows: pYpY190 stock concentration is 10 mM; pYpYEphB4 stock concentration is 2.5 mM; Dok1 stock concentration is 5.5 mM; pY596 stock concentration is 10 mM; and pY590 stock concentration is 8 mM.
Purified RasGAP^232 protein and solubilized peptides were dialyzed overnight against buffer containing 20 mM Tris pH 8, 250 mM NaCl in Slide-A-Lyzer 3 ml 10 kDa molecular weight cut off cassettes (Spectra-Por) and Micro Float-A-Lyzer 0.1 to 0.2 ml, 0.1 to […] molecular weight cut off devices (Spectra-Por), respectively. Protein and peptide concentrations were determined by A280 measured on a Nanodrop Lite (Thermo Fisher Scientific) instrument using extinction coefficients of 45,840 M^−1 cm^−1 for RasGAP^232 (and mutants), 917 M^−1 cm^−1 for the doubly phosphorylated EphB4 peptide, and 458.5 M^−1 cm^−1 for the singly phosphorylated EphB4 peptides as determined by ([74]). Dok1 peptide concentration was confirmed using Amino Acid Analysis performed at UC Davis Molecular Structure Facility. Samples were centrifuged for 10 min at 4 °C and degassed for 7 min using a Degassing Station (TA Instruments). ITC experiments were performed on a Nano ITC (TA Instruments) by loading protein into the 190 μl sample cell and titrating 20 times with 2.5 μl peptide in the titration syringe. Concentrations for sample cell and syringe for each trial are included in Table S1. The data were analyzed in NanoAnalyze software (TA Instrument) using blank (constant) and independent models (https://www.tainstruments.com/itcrun-dscrun-nanoanalyze-software/).

Setting [1] is: ITC, average of trials (Table S1).

The term Kd denotes the constant that tells how readily two partners part at equilibrium. A higher Kd goes with weaker binding.

Several values for one entry are separate records, joined by “and”; a condition that tells them apart may be missing. Equal entries are not always repeated. Square brackets hold non-standard residues; d marks the D form. Ends that are not written are not given here. Peptide text beside a SMILES is read from it. pY = N[C@@H](Cc1ccc(OP(=O)(O)O)cc1)C(=O)O

`CC[C@H](C)[C@H](NC(=O)[C@H](CCCNC(=N)N)NC(=O)[C@H](CC(C)C)NC(=O)[C@H](CO)NC(=O)[C@H](CC(=O)O)NC(=O)[C@H](CC(C)C)NC(=O)[C@@H]1CCCN1C(=O)[C@H](CCC(=O)O)NC(=O)[C@H](C)NC(=O)[C@H](Cc1ccc(OP(=O)(O)O)cc1)NC(=O)[C@H](CC(C)C)NC(=O)[C@H](C)NC(=O)[C@@H]1CCCN1C(=O)[C@@H]1CCCN1C(=O)[C@H](CO)NC(C)=O)C(=O)N[C@@H](C)C(=O)N1CCC[C@H]1C(=O)N[C@@H](CS)C(=O)N1CCC[C@H]1C(=O)N[C@@H](CO)C(=O)N[C@@H](CCC(N)=O)C(=O)N[C@@H](CC(=O)O)C(=O)N[C@@H](CO)C(=O)N[C@@H](CC(C)C)C(=O)N[C@@H](Cc1ccc(OP(=O)(O)O)cc1)C(=O)N[C@@H](CO)C(=O)N[C@@H](CC(=O)O)C(=O)N1CCC[C@H]1C(=O)N[C@@H](CC(C)C)C(=O)N[C@@H](CC(=O)O)C(=O)N[C@@H](CO)C(=O)N[C@H](C(N)=O)[C@@H](C)O` [pYpY Dok1] (Ac-SPPAL[pY]AEPLDSLRIAPCPSQDSL[pY]SDPLDST-NH2) had a n (ITC stoichiometry, mean ± SD of trials) of 0.8 ± 0.1. The compound further came in with a Kd (ITC, 20 mM Tris pH 8, 250 mM NaCl, independent model, mean ± SD of trials (n = 4 EphB4, n = 3 Dok1)) of 30 ± 20 nM. Under setting [1], the “-T∆S” value is 8.37 kcal/mol, the Ka was found to be 40 µM⁻¹ and the “∆G” value was -10.3 kcal/mol. Where the note is “ITC, mean ± SD of trials”, the ΔH was -18.6 kcal/mol and -18.6 ± 0.72 kcal/mol; the ΔS is -120 J/mol∗K and −120 ± 14 J/mol∗K. Besides, under “trial 1, ITC”, the “-T∆S” value was 7.17 kcal/mol, the Ka amounted to 63 µM⁻¹, the “∆G” value is -10.5 kcal/mol and the “∆H” value was -17.9 kcal/mol. In addition, the “∆S” value (trial 1, ITC) is -102 J/mol*K. For the same compound, for the setting “trial 2, ITC”, the “-T∆S” value is 9.32 kcal/mol, the Ka came out at 21 µM⁻¹, the “∆G” value was -10 kcal/mol and the “∆H” value is -19.4 kcal/mol. In addition, the “∆S” value (trial 2, ITC) is reported as -131 J/mol*K. For the setting “trial 3, ITC”, the “-T∆S” value amounted to 8.37 kcal/mol, the Ka amounted to 43 µM⁻¹, the “∆G” value is -10.5 kcal/mol and the “∆H” value is -18.6 kcal/mol. Moreover, where the note is “trial 3, ITC”, the “∆S” value is reported as -116 J/mol*K.
As to “SD[pY]AEPMDAVVKPRNEEENI[pY]SVPH [pYpY p190RhoGAP-A, Doubly phosphorylated p190RhoGAP-A peptide (pY1087, pY1105)]”, where the note is “ITC Kd, compared with individual SH2 interactions (Table 1, ref [60])”, the “affinity tighter than individual SH2–phosphotyrosine interactions” value is listed as 15- to 30 fold.
